By IC50 is commonly meant the concentration that inhibits the measured activity by half. Higher therefore signals a need for much substance.

Series [1] has as its target Opioid receptors; mu/kappa/delta (Homo sapiens, UniProt P41145+P41143+P35372). In words: Evaluated the ability to protect against the irreversible antagonism of morphines effects by beta-FNA in guinea pig ileal longitudinal muscle. The format is functional, tissue-based, Cavia porcellus, Muscle tissue.
Series [2] can be described thus: Compound was tested for ability to protect against the irreversible antagonism of morphine''s effects by beta-FNA in guinea pig ileum at 1 uM concentration. In kind it is functional.
Series [3] in a line: Compound was tested for ability to protect against the irreversible antagonism of morphine''s effects by beta-FNA in guinea pig ileum at 10 nM concentration, ratio is IC50 after treatment/control IC50. The format is functional.
Series [4] in a line: Compound was tested for ability to protect against the irreversible antagonism of morphine''s effects by beta-FNA in guinea pig ileum at 200 nM concentration. The format is functional.
Series [5] in a line: Compound was evaluated for equilibrium constant, Ke. In kind it is ADME.
Series [6] in a line: Effect of protecte expressed as morphine IC50 ratio (IC50 after treatment/control IC50) at 200 nM concentration. In kind it is functional.
A short description of series [7]: Compound was tested for ability to protect against the irreversible antagonism of morphine''s effects by beta-FNA in guinea pig ileum at 20 nM concentration. In kind it is functional.
A short description of series [8]: Compound was tested for ability to protect against the irreversible antagonism of morphine''s effects by beta-FNA in guinea pig ileum at 2 nM concentration. In kind it is functional.

As to `COC(=O)/C=C/C(=O)N[C@@H]1CC[C@@]2(O)C3Cc4ccc(O)c5c4C2(CCN3C)C1O5` (stereo partly specified), in series [1], the IC50 turned out to be 22 nM. For the same molecule, the Ratio in series [2] is given as 5.2.

Turning to `CCOc1ccc2c(c1)C1(C)CCN(CC3CC3)C(C2=O)C1C` (stereo unspecified) [ETHYLKETAZOCINE], the IC50 in series [1] turned out to be 0.6 nM. In series [3], the Ratio turned out to be 4.6.

In series [1], `C=CCN1CC[C@]23c4c5ccc(O)c4O[C@H]2[C@@H](O)C=C[C@H]3[C@H]1C5` [NALORPHINE] yielded an IC50 of 28 nM. In addition, the Ratio in series [4] is given as 1.9; in series [2], 1.4. Further, the Ke in series [5] was 4.5.

Regarding `C=CCN1CC[C@]23c4c5ccc(O)c4O[C@H]2C(=O)CC[C@@]3(O)[C@H]1C5` [NALOXONE], the figures for the Ratio in series [6], in series [7] and in series [8] were 1.1, 1.9 and 3.4, respectively. The Ke in series [5] is 1.2.

In the case of `O=C1CC[C@@]2(O)[C@H]3Cc4ccc(O)c5c4[C@@]2(CCN3CC2CC2)[C@H]1O5` [NALTREXONE], the Ratio in series [6] was found to be 1; in series [7], 1; in series [8], 2.4. This molecule displayed a Ke in series [5] of 0.38.
